Assay results taken from patent US7151165B2, “Antibodies immunospecific for a novel human G-protein coupled receptor family” (priority 1999, dated 2006).

Tests used:
IGS4B = biological target: T1, IGS4B (Homo sapiens, UniProt Q9GZQ4, A395T/F315L/M388V/P383L/S298T); assay: FLIPR intracellular calcium mobilisation in CHOGα16-IGS4 cells (IGS4B); type: cell-based; settings: for maximal activation of IGS4B: comparison among the three neuromedin U isoforms; for IGS4-mediated calcium mobilisation in the FLIPR assay: range 10^−6–10^−12 M, IGS4B
T1 construct: expressed in transfected cells; host or cells: CHOGα16 (CHO cells stably expressing Gα16, Molecular Devices), transfected with IGS4-pcDNA3.1
Experimental: (§1) A. Method and Materials for IGS-4 Transfected CHOGα16IGS4 cells.
(§2) The following materials were used in the experiments: Vector containing IGS4-DNA sequence (IGS4-pcDNA3.1); SuperFect Transfection Reagent (Qiagen): Nut-Mix F12 (Gibco) with 10% FCS, 0.028 mg/ml Gentamycin (Gibco); 0.22 mg/ml Hygromycin (Gibco).
(§3) Materials used for clone selection: Nut-Mix F12 with 10% FCS; 0.028 mg/ml Gentamycin; 0.22 mg/ml Hygromycin and 0.55 mg/ml Geneticin (Gibco).
(§4) The following method was applied: Transfection with SuperFect Transfection Reagent was carried out as described by the manufacturer (Qiagen). Cells were plated in 24-well plates to 50% confluence. Per well […] plasmid-DNA with 1 μl SuperFect Transfection Reagent was added. After 24 hours the medium was changed and transfected cell clones were selected by Geneticin-containing selection-medium. IGS4 expressing cell clones were characterized by RT-PCR and Northern Blot.
B. Method and Materials for FLIPR-Assay.
The method was performed as follows: Cells were seeded 24 hours or 48 hours prior to the experiment into black wall microplates. The cell density was […] cells/well for 48 hour incubation and […] cells/well for 24 hour incubation. All steps were done under sterile conditions.
In order to observe changes in intracellular calcium levels, cells must be ‘loaded’ with a calcium-sensitive fluorescent dye. This dye, called FLUO-4 (Molecular Probes) is excited at 488 nm, and emits light in the 500–560 nm range, only if a complex with calcium is formed. The dye was used at 4 μM final concentration. Pluronic acid was added to increase dye solubility and dye uptake into the cells. Probenicid, an anion exchange protein inhibitor, was added to the dye medium to increase dye retention in the cells.
The method was worked as follows: The 2 mM stock of dye was mixed with an equal volume of 20% (w/v) pluronic acid immediately before adding to the loading-Buffer. The growth-medium was aspirated out of the well without disturbing the confluent cell layer. 100 μl loading medium was dispensed into each well using a Multidrop (Labsystems). Cell were incubated in a 5% CO2, 37° C. incubator for 30 minutes. In order to calculate the, background fluorescence, some wells were not dye loaded. The background fluorescence in these wells results from autofluorescence of the cells. After dye loading, cell were washed three times with Wash-Buffer (automated Denley cell washer) to reduce the basal fluorescence to 20.000–25.000 counts above background. 100 l buffer was added and cell were incubated at 37° C. till start of the experiment. […]
The resulting CHOGα16-IGS4 cells were functionally screened on a Fluorometric Imaging Plate Reader (FLIPR) to measure mobilisation of intracellular calcium in response to putative peptide ligands. […]

IGS4A = biological target: T2, IGS4A (Homo sapiens, UniProt Q9GZQ4, A395T); assay: FLIPR intracellular calcium mobilisation in CHOGα16-IGS4 cells (IGS4A); type: cell-based; settings: range 10^−6–10^−12 M
T2 construct: expressed in transfected cells; host or cells: CHOGα16 (CHO cells stably expressing Gα16, Molecular Devices), transfected with IGS4-pcDNA3.1
Experimental: as §1, §2, §3
as §4, with “IGS4 expressing cell clones were characterized by RT-PCR and Northern Blot.” left out
The method was worked as follows: The 2 mM stock of dye was mixed with an equal volume of 20% (w/v) pluronic acid immediately before adding to the loading-Buffer. […] In order to calculate the, background fluorescence, some wells were not dye loaded. The background fluorescence in these wells results from autofluorescence of the cells. After dye loading, cell were washed three times with Wash-Buffer (automated Denley cell washer) to reduce the basal fluorescence to 20.000–25.000 counts above background. […]

IGS4 = assay: Basal intracellular cAMP in CHOGα16-IGS4 cells; type: cell-based, human; settings: 1 and 10 μM; data not shown

T1 sequence (Q9GZQ4 whole entry S298T/F315L/P383L/M388V/A395T, canonical isoform): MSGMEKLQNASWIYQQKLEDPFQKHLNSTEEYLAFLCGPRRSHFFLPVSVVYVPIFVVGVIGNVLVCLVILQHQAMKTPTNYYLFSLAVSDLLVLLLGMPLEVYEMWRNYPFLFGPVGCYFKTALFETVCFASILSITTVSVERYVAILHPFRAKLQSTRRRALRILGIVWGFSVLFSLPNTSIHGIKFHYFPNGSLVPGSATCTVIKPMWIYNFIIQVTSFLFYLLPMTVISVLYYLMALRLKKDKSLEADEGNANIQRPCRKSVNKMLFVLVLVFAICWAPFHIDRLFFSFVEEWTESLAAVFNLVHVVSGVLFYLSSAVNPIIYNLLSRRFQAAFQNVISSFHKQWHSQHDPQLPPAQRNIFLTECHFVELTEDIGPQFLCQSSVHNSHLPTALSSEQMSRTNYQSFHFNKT
T2 sequence (Q9GZQ4 whole entry A395T): as the sequence (Q9GZQ4 whole entry S298T/F315L/P383L/M388V/A395T, canonical isoform) above, with T298S, L315F, L383P, V388M counted along it

maximal activation of IGS4B (IGS4B) | Substance | IGS4-mediated calcium mobilisation in the FLIPR assay (IGS4B) | IGS4-mediated calcium mobilisation in the FLIPR assay (IGS4A) | basal levels of intracellular cAMP (IGS4)
same maximal activation | neuromedin U-8 | induced specific IGS4-mediated calcium mobilisation | induced specific IGS4-mediated calcium mobilisation | not modulated
same maximal activation | neuromedin U-25 | induced specific IGS4-mediated calcium mobilisation | induced specific IGS4-mediated calcium mobilisation | –
